Here are results for three compounds from patent publication US10753892B2, “Non-invasive sensing of free metal ions using ion chemical exchange saturation transfer” (The Johns Hopkins University, priority 2013, dated 2020).

A short description of data set [1]: 19F-iCEST MRI of 5F-BAPTA with Ca2+ (16.4 T, 37° C.), Bloch simulations. It counts as binding. On the procedure:
(§1) 5F-BAPTA was dissolved in Hepes buffer (40 mM) to a final concentration of 10 mM and the pH was adjusted to the following values: 5.6, 6.0, 6.4, 6.8, 7.0, 7.2, and 7.6. Stock 10 mM solutions of CaCl2, MgCl2, and ZnCl2 were prepared in 40 mM Hepes buffer. Five μL of the stock solution was added to 1 mL of 10 mM 5F-BAPTA resulting in a 200:1 ratio (10 mM: 50 μM) between the free 5F-BAPTA and the M^2+ ion following by a pH adjustment. One mL of each sample (with adjusted pH) was transferred into a 8 mm NMR tube within a 25 mm NMR tube in order to center the sample in the coil for the MRI experiments.
(§2) MRI experiments were performed on a vertical 16.4 T scanner (Bruker Avance system) at 37° C. A 25 mm birdcage radiofrequency coil was used to acquire both ^1H and ^19F MR images by sweeping the coil frequency from proton (700 MHz) to fluorine (658.8 MHz) frequency.
(§3) The saturation transfer effect on the free 5F-BAPTA, i.e., the MTR or iCEST, was calculated for each voxel in the image by using a Lorentzian line shape fitting as described in Jones et al. (Magn Reson Med 2012, 67, 1579), and Liu et al. (Molecular imaging 2012, 11, 47).
Numerical solutions to the six Bloch equations including direct saturation of free 5F-BAPTA were obtained as described previously (McMahon, M. T. et al., Magnetic Resonance in Medicine 2006, 55, 836). The relaxation parameters for ^19F used in the Bloch equations were R1=1/T1 with bound calcium (Rib)=0.71 s^−1, R2 bound calcium (R2b)=29 s^−1, whereas the R1 and R2 values of free 5F-BAPTA (R1f and R2f) were determined experimentally through inversion-recovery and saturation-recovery experiments as a function of pH on solutions containing 20 mM 5F-BAPTA as listed in Table 1 as follows:
(§4) Saturation time (tsat) was either 1500 ms to 2000 ms as indicated in the text.
An aqueous solution containing 0.5 mM of 5F-BAPTA and 500 nM in Hepes buffer (40 mM, pH=7.2) was transferred into a 20 mm NMR tube, which was located within a 25 mm NMR tube in order to centralize the sample in the coil for the MRI experiment. The same parameters used for ^19F-iCEST experiments were used except the followings: TR=3000 ms, RARE=8, FOV=6.0 cm (resolution=1.875×1.875 mm), and 168 averages.

Data set [2] can be described thus: 19F-iCEST MRI of 5F-BAPTA with Zn2+ (16.4 T, 37° C.). The note with it: 10 mM 5F-BAPTA, 50 μM Zn2+, pH 7.2 and 6.4. It counts as binding. The protocol: as §1, §2, §3, §4
The nature of data set [3]: 19F-iCEST MRI of 5F-BAPTA with Mg2+ (16.4 T, 37° C.). Type of data set: binding. On the procedure: as §1, §2, §3, §4
The nature of data set [4]: Relaxation times T1 and T2 of free 5F-BAPTA as a function of pH. The following applies: free 5F-BAPTA 20 mM. Type of data set: physicochemical. On the procedure:
The same image geometry as in the ^19F-CEST experiments was used for the determination of T1 and T2 of the imaged samples. For T1 measurements, a saturation recovery experiment was performed with TR values of 61, 214, 395, 615, 899, 1296 1964, and 4961 ms. A spin-echo experiment (TR=5000 ms) with multiple echoes was performed with variable echo times (TE=5, 10 15, 20, 25, 30, 35, and 40 ms) to determine the T2 value of each sample.
Numerical solutions to the six Bloch equations including direct saturation of free 5F-BAPTA were obtained as described previously (McMahon, M. T. et al., Magnetic Resonance in Medicine 2006, 55, 836). The relaxation parameters for ^19F used in the Bloch equations were R1=1/T1 with bound calcium (Rib)=0.71 s^−1, R2 bound calcium (R2b)=29 s^−1, whereas the R1 and R2 values of free 5F-BAPTA (R1f and R2f) were determined experimentally through inversion-recovery and saturation-recovery experiments as a function of pH on solutions containing 20 mM 5F-BAPTA as listed in Table 1 as follows: […]

A short description of data set [5]: 19F-CEST experiments with 5F-BAPTA at pH 7.0 (11.7 T NMR, 16.4 T MRI). The following applies: 10 mM 5F-BAPTA, 100 μM M2+, saturation at Δω=5.8 ppm. Type of data set: binding. The protocol:
^19F-CEST experiments were performed on solutions containing 1,2-Bis-[2-bis(carboxymethyl)amino-5-fluorophenoxy]ethane (5F-BAPTA), with and without divalent cations (M^2+).
Experiments were performed on an 11.7T NMR spectrometer (Bruker). 5F-BAPTA (AnaSpec, Inc.) was dissolved in 40 mM HEPES buffer (pH=7.0) to a concentration of 5 mM, and CaCl2 was dissolved to a final Ca^2+ concentration of 50 μm.
^19F-CEST spectra (z-spectra) were acquired with a saturation transfer sequence consisting of a saturation pulse (B1=4.7 μT, 4 sec) with variable offset (from −7.5 to +7.5 ppm relative to the 5FBAPTA frequency set at 0 ppm). Experiments were performed without (room temperature, RT) and with sample heating (37° C.). The MTRasym=100×(S−Δω−S+Δω)/S0 was computed at different offsets Δω, where S0 is the 5F-BAPTA signal without saturation.
Imaging experiments were performed on a 16.4T MRI scanner (Bruker). 5F-BAPTA was dissolved to 10 mM in 40 mM HEPES, pH=7.0, with or without 100 μM of M^2+ (Mg^2+, Zn^2+, or Ca^2+).
^19F-CEST images were acquired using a continuous wave presaturation pulse (B1=3.6 μT, 3 sec) followed by a multi-echo MRI pulse sequence (RARE, rare factor 4, TR/TE=6000/10 ms). FOV of 4×4 cm, matrix 32×32 and slice thickness 10 mm. Mean ^19F-CEST spectra were derived after B0 correction for each voxel using MatLab. MTRasym plots and maps were calculated.

The nature of data set [6]: Relaxation times T1 and T2 of free 5F-BAPTA as a function of pH. It counts as physicochemical. The note with it: pH 5.6, estimated from the Bloch equation fitting.
For data set [7] the following is noted: cited from earlier work.
For data set [8] the following is noted: Bloch simulations, two pool model.
Procedure: (§5) Experiments were performed on solutions containing TF-BAPTA and multiple biologically relevant metal ions (K^+, Na^+, Ca^2+, Mg^2+, Cu^2+, Fe^2+ and Zn^2+) at 37° C. and pH=7.4. MR Spectroscopy as follows: TF-BAPTA was dissolved to a final concentration of 5 mM, and ions were add at 500 μM. Using 5-Fluorocytosine (5-FC) as an internal ^19F reference, ^19F-NMR spectra were acquired (11.7 T NMR spectrometer, Bruker). MRI: Experiments were performed on a 17.6 T MRI scanner (Bruker). TF-BAPTA was dissolved to 10 mM with 200″ AM of ion. A RARE (factor 8) sequence was used to acquire 1H MRI (TR/TE=5,000/7.7 ms, 1 mm slice, FOV=2×2 cm, matrix size=128×128). For ^19F MRI, the center frequency (O1) was set at the frequency of the 19F atom at the 6 position (0.0 ppm) of TF-BAPTA (FIG. 1a), while signal from the ^19F located at the 5 position of TF-BAPTA (FIG. 1a-b, 4.5 ppm downfield) was suppressed. A modified RARE sequence (TR/TE=4,000/3.4 ms, RARE factor=16, 6 mm slice, FOV=2×2 cm, matrix size=32×32, and a saturation pulse B1=1.2, 2.4 or 3.6 ItT/2 s) were used to acquire ^19F iCEST. Mean ^19F Z-spectra (iCEST spectra), were obtained after B0 correction. CEST contrasts, i.e., the magnetization transfer ratio (MTR) images were calculated after Lorentzian line shape fitting.
The conditions of data set [9]: Bloch simulations, two pool model. The source holds these as a separate data set.
Procedure: as §5
For data set [10] the following is noted: London et al., 1994; cited from earlier work.

Several values for one entry are separate records, joined by “and”; a condition that tells them apart may be missing. Identical values can stand only once. Entries after “also recorded” stand apart in the source; their conditions may differ. Marks after values point to notes of the source that are not given here.

Take `O=C(O)CN(CC(=O)O)c1ccc(F)cc1OCCOc1cc(F)ccc1N(CC(=O)O)CC(=O)O` [5F-BAPTA, 2,2′,2″,2′″-(2,2′-(Ethane-1,2-diylbis(oxy))bis(4-fluoro-2,1-phenylene))bis(azanetriyl)tetraacetic acid]: the “Ca2+ concentration detected by iCEST” value in data set [1] (0.5 mM 5F-BAPTA, pH 7.2) was 500 nM. The “iCEST (saturation transfer) contrast, Ca2+ containing sample” value in data set [1] (10 mM 5F-BAPTA, 50 μM Ca2+, pH 7.2 and 6.4, B1=3.6 μT/2000 ms) is “pronounced saturation transfer contrast was detected; also recorded: large iCEST contrast was detected”. Besides, the “kex between [Ca-5F-BAPTA] and 5F-BAPTA” value in data set [1] (Bloch simulations, all examined pH values) was 190 s⁻¹ and 190 ± 10 s⁻¹. In data set [1] (iCEST, FIGS. 13a-c), the “Ca2+ specificity in a Zn2+ background” value is on record as “high Ca^2+ specificity”. Moreover, the “Ca2+ specificity in a Mg2+ background” value in [1] (iCEST, FIGS. 14a-c) was “high Ca^2+ specificity”. Also, in data set [1] (iCEST, kex 190 s−1), the “amplification factor for Ca2+” value is on record as roughly 100. Also, the “iCEST contrast in the Z-spectrum” value in data set [1] (χCa=1:1000, 5 mM 5F-BAPTA, pH 7.2) is roughly 11%. The “iCEST contrast, Zn2+ containing sample” value in data set [2] is on record as “did not generate iCEST contrast”. Besides, in data set [3] (10 mM 5F-BAPTA, 50 μM Mg2+, pH 7.2 and 6.4), the “iCEST contrast, Mg2+ containing sample” value is recorded as “did not generate iCEST contrast”. The “amplification factor for Mg2+” value in data set [3] (iCEST, FIG. 10b) came out at 10. The “T1” value in data set [4] (pH 5.6), in [4] (pH 6.0), in [4] (pH 6.4), in data set [4] (pH 6.8), in data set [4] (pH 7.0) and in [4] (pH 7.2) was 715 ms throughout. Also, the “T1” value in [4] (pH 7.6) came out at 715 ms. The “T2” value in data set [4] (pH 6.0) turned out to be 10 ms; in data set [4] (pH 6.4) it was 11 ms; in [4] (pH 6.8) it was 25 ms; in [4] (pH 7.0) it was 32 ms; in [4] (pH 7.2) it was 38 ms. Moreover, the “19F-CEST MRI contrast among tubes with no M2+, Mg2+, Zn2+ or Ca2+” value in [5] is given as “only the Ca^2+ containing solution generated contrast”. The “T2 (ms)” value in [6] was 6^a ms.
As to `O=C(O)CN(CC(=O)O)c1ccccc1OCCOc1ccccc1N(CC(=O)O)CC(=O)O` [BAPTA, 1,2-bis(o-aminophenoxy)ethane-N,N,N′,N′-tetraacetic acid], in data set [1] (50 μM Ca2+ with 200 μM Mg2+ or 50 μM Zn2+, 10 mM chelate, pH 7.2, Δω=6 ppm), the “iCEST contrast produced by Ca2+ in mixtures” value is roughly 22%. For the same compound, in data set [7], the “selectivity for Ca2+ over Mg2+” value is recorded as > 10^5.
With `O=C(O)CN(CC(=O)O)c1cc(F)c(F)cc1OCCOc1cc(F)c(F)cc1N(CC(=O)O)CC(=O)O` [TF-BAPTA, 5,5′, 6,6′-tetrafluoro-BAPTA], the “exchange rate (kex) between free and Zn2+-bound TF-BAPTA” value in [8] is roughly 20 s⁻¹. Moreover, in [9], the “exchange rate (kex) between free and Fe2+-bound TF-BAPTA” value was roughly 20 s⁻¹. The “exchange rate of Ca2+ with TF-BAPTA” value in [10] is on record as ~30,000 s−1.
